The source of these data is patent publication EP2198709A1, “Method for treating resistant animal pests” (Bayer CropScience AG, priority 2008, dated 2010).

Molecules are shown by their SMILES.

Holding throughout (format): in vivo
Data set [1] concerns Nymphen von Bemisia tabaci. The data set is described as follows: Field trial on aubergine plants, drench, against nymphs of neonicotinoid-resistant whiteflies (Almeria). Conditions: drenched 3x, 150 g ai/ha/m CH, I-5 SL 300, Imidacloprid SL 200. An excerpt: In Almeria (Südspanien) wurden Auberginenpflanzen, die stark mit Nymphen von bekanntermaßen Neonikotinoyl-resistenten weißen Fliegen (Bemisia tabaci) infiziert waren, jeweils drei Mal im Abstand von 9 und 12 Tagen mit der Verbindung I-5 (SL 300, 150 g ai/ha/m CH (g aktive Substanz/ha/m CH, CH = Laubwand-Höhe) bzw. mit Imidacloprid (SL 200, 150 g ai/ha/m CH) gegossen. Zu verschiedenen Zeitpunkten nach der dritten Behandlung (DAC = Tage nach 3. Behandlung) wurde die Wirksamkeit (in % Abbott: Verhältnis der Anzahl Nymphen auf behandelter Pflanze / Fläche zur Anzahl Nymphen auf Kontrolle) der beiden Substanzen gegen Nymphen von Bemisia tabaci in bestimmt.

Data set [2] concerns Nilaparvata lugens. The data set is described as follows: Field trial on rice plants, spray, against neonicotinoid-resistant brown planthoppers (Thailand). The note with it: 50 g ai/ha/m CH, both SL 100. An excerpt:
In Banglane (Thailand) wurden Reispflanzen, die stark mit bekanntermaßen Neonikotinoyl-resistenten Braunrückigen Reiszikaden (Nilaparvata lugens) infiziert waren, jeweils zwei Mal im Abstand von 14 Tagen mit der Verbindung 1-5 (SL 100, 50 g ai/ha/m CH (g aktive Substanz/ha/m CH, CH = Laubwand-Höhe) bzw. mit Imidacloprid (SL 100, 50 g ai/ha/m CH) besprüht. Zu verschiedenen Zeitpunkten nach der ersten bzw. zweiten Behandlung (DAA = Tage nach 1. Behandlung, DAB = Tage nach zweiter Behandlung) wurde die Wirksamkeit (in % Abbott: Verhältnis der Anzahl Tier auf behandelter Pflanze / Fläche zur Anzahl Tiere auf Kontrolle) der beiden Substanzen gegen Nilaparvata lugens bestimmt.

The subject of data set [3] is Nilaparvata lugens Bayer S. The data set is described as follows: Spray test on infested rice seedlings (standard screening), susceptible strain Bayer S. The note with it: rice seedlings sprayed, evaluation 7 days after infection. From the text: Reissetzlinge wurden mit Stämmen von Nilaparvata lugens (Bayer S und Vietnam) infiziert und mit der Verbindung I-5 bzw. mit Imidacloprid besprüht. Die Auswertung erfolgte 7 Tage nach Infektion (Standard-Screening-Verfahren).

In data set [4] the test system is Nymphen von Bemisia tabaci. The data set is described as follows: Field trial on pepper plants, spray, against nymphs of neonicotinoid-resistant whiteflies (Almeria). The note with it: sprayed 3x, 150 g ai/ha/m CH, I-5 SL 200, Imidacloprid OD 200. From the text:
In Almeria (Südspanien) wurden Paprikapflanzen, die sehr stark mit Nymphen von bekanntermaßen Neonikotinoyl-resistenten Weißen Fliegen (Bemisia tabaci) infiziert waren, jeweils drei Mal im Abstand von 9 und 12 Tagen mit der Verbindung I-5 (SL 200, 150 g ai/ha/m CH (g aktive Substanz/ha/m CH, CH = Laubwand-Höhe) bzw. mit Imidacloprid (OD 200, 150 g ai/ha/m CH) besprüht. Zu verschiedenen Zeitpunkten nach der dritten Behandlung (DAC = Tage nach 3. Behandlung) wurde die Wirksamkeit (in % Abbott: Verhältnis der Anzahl Nymphen auf behandelter Pflanze / Fläche zur Anzahl Nymphen auf Kontrolle) der beiden Substanzen gegen Nymphen von Bemisia tabaci in bestimmt.

Where [5] appears, read: 7 DAC (days after 3rd treatment).

Regarding `O=[N+]([O-])NC1=NCCN1Cc1ccc(Cl)nc1` [Imidacloprid], the Effizienz in data set [1] (7 DAC) is reported as 41 % Abbott; in data set [1] (14 DAC) it was 50,7 % Abbott; in data set [1] (21 DAC), 21 % Abbott; in data set [2] (1 DAA, sprayed), 19,6 % Abbott; in data set [2] (3 DAA, sprayed), 24,9 % Abbott; in data set [2] (5 DAA, sprayed), 36,5 % Abbott. Also, the Effizienz in data set [2] (7 DAA, sprayed) was 26,6 % Abbott; in data set [2] (7 DAB, sprayed 2x), 19,8 % Abbott; in data set [2] (14 DAA, sprayed) it was 17,8 % Abbott; in data set [2] (14 DAB, sprayed 2x), 26,4 % Abbott; in data set [4] (setting [5]) it was 76,7 % Abbott; in data set [4] (14 DAC), 75,3 % Abbott. Moreover, the Effizienz in data set [4] (21 DAC) is recorded as 75,1 % Abbott; in data set [4] (28 DAC), 1,3 % Abbott. Besides, the “Bayer S (empfindlicher Stamm) LC50” value in data set [3] is 0,0049 g/ha.

On to `O=C1C=C(N(Cc2ccc(Cl)nc2)CC(F)F)CO1` [Verbindung I-5, 4-{[(6-Chlorpyrid-3-yl)methyl](2,2-difluorethyl)amino}furan-2(5H)-on], for which the Effizienz in data set [1] (7 DAC) is 79,1 % Abbott; in data set [1] (14 DAC) it was 63,7 % Abbott; in data set [1] (21 DAC) it was 66,8 % Abbott; in data set [2] (1 DAA, sprayed), 19 % Abbott; in data set [2] (3 DAA, sprayed), 39 % Abbott; in data set [2] (5 DAA, sprayed) it was 66,8 % Abbott. The Effizienz in data set [2] (7 DAA, sprayed) is on record as 70,3 % Abbott; in data set [2] (7 DAB, sprayed 2x), 69,5 % Abbott; in data set [2] (14 DAA, sprayed), 65,7 % Abbott; in data set [2] (14 DAB, sprayed 2x) it was 55,9 % Abbott; in data set [4] (setting [5]), 99,2 % Abbott; in data set [4] (14 DAC), 98,5 % Abbott. For the same compound, the Effizienz is reported as 97,4 % Abbott in data set [4] (21 DAC) and 84,3 % Abbott in data set [4] (28 DAC). Further, the “Bayer S (empfindlicher Stamm) LC50” value in data set [3] was 0,36 g/ha.
